# Laboratory results: patent US20240197756A1, “METHODS OF TREATMENT WITH NEUROACTIVE STEROIDS” (priority 2021, published 2024)
# Entries after “also recorded” stand apart in the source; their conditions may differ. Read-outs that look alike come from different tables or passages of the source.
# Columns and labels:
# harmaline-induced tremor = assay: Rat Harmaline Induced Tremor (rHIT) model; type: in vivo; conditions: 0.3, 1, 3, 10 mg/kg i.p., 30 min before harmaline 30 mg/kg i.p. (FIG. 9)
# Description: A rat model of tremor (Rat Harmaline Induced Tremor; rHIT) was used to assess the impact of Compound 1 on reducing the symptoms of tremor. Male SD rats (SLAC, Shanghai, China) having a body weight of about 250 g at the time of testing were fed ad libitum and kept in a 12:12 light-dark cycle room, with the lights on from 5 a.m. to 5 p.m, throughout the study. Rats were allowed to acclimate to standard laboratory conditions for at least 5-7 days prior to the experiment.
# One day prior to testing, a naive rat was placed in the testing chamber, which was a plexiglass chamber with a piezoelectric plate attached at the bottom to transduce tremor behavior into an electrical signal. The rat was placed in the chamber in order to adjust the spontaneous activity baseline signal. […]
# Next, at T=0 minutes, all groups were intraperitoneally administered 30 mg/kg (5 mL/kg) of harmaline formulated in a saline vehicle. The post-harmaline effect was measured for twenty minutes (T=10 to 30 minutes). […]
# Piezoelectric plate signal analysis: For the power spectral density analysis, electrical tremor signal was processed with fast Fourier transform (FFT) at a resolution of 0.5 Hz bins. […] The average maximum power density across the 8-13 Hz band in 0.5 Hz bins was also calculated. […]
# [1] = Example 3 Part A: oral suspension administered at 4 p.m. vs 8 p.m., plasma pharmacokinetics; type: in vivo, human; conditions: for AUCinf / Cmax / AUC(0-inf) / Tmax / half-life: human, in vivo; for AUCinf / Cmax / AUC(0-inf) / Tmax: po; for AUC(0-inf): AUCinf
# Description: Patients with severe major depressive disorder (MDD) aged 18 to 65 years were treated with an oral suspension or tablet of Compound 1 to study the effect of food and time of administration on the pharmacokinetics, as well as the safety and tolerability of these formulations.
# Part A is an open-label, non-randomized, fixed-sequence crossover design to evaluate Compound 1 at 2 different administration times (4 p.m., approximately 4 hours after lunch and 2 hours prior to dinner, and at 8 p.m., approximately 4 hours after dinner). 16 participants were administered an oral suspension of Compound 1.
# Preliminary pharmacokinetics data from Part A, where 45 mg and 60 mg of oral suspension were administered (Cohort 1), and Part C, where 40 mg (2×20 mg), 60 mg (3×20 mg) and 80 mg (4×20 mg) of the tablet formulation were administered, have been analyzed and are summarized below.
# [2] = oral suspension 45 mg and 60 mg
smiles,measurement,setting,value
"COC[C@@]1(O)CC[C@@]2(C)[C@@H](CC[C@@H]3[C@@H]2CC[C@]2(C)[C@@H](C(=O)Cn4ccnc4)CC[C@@H]32)C1 [Compound 1, 3α-Hydroxy-3β-methoxymethyl-21-(1′-imidazolyl)-5α-pregnan-20-one]",inhibition of harmaline-induced tremor,harmaline-induced tremor,dose-dependently inhibits; also recorded: dose dependent inhibition
same,AUCinf,[1]; 45 mg,1880 ng·h/mL
same,Cmax,[1]; 45 mg,157 ng/mL
same,AUC(0-inf),[1]; 45 mg,1800 ng·h/mL
same,Cmax,"[1]; 45 mg, Cmax",207 ng/mL
same,Tmax,[1]; 45 mg,1.5 h
same,AUCinf,[1]; 60 mg,2930 ng·h/mL
same,Cmax,[1]; 60 mg,249 ng/mL
same,AUC(0-inf),[1]; 60 mg,2800 ng·h/mL
same,Cmax,"[1]; 60 mg, Cmax",282 ng/mL
same,Tmax,[1]; 60 mg,1.5 h
same,half-life,"[1]; oral suspension 45 mg and 60 mg, 4 p.m. and 8 p.m., range, read-out: Mean t1/2",11.1 to 12.6 h
same,half-life,"[1]; oral suspension 60 mg 4 PM (4 h after lunch, 2 h before dinner), N = 15, Mean, read-out: t1/2 (converted)",12 h
same,t1/2,"[1]; oral suspension 45 mg 4 PM (4 h after lunch, 2 h before dinner), N = 16, Mean",12.6 h
same,t1/2,"[1]; oral suspension 45 mg 8 PM (4 h after dinner), N = 15, Mean",11.3 h
same,Cmax at 8 p.m. as compared to 4 p.m.,[1]; [2],reduced
same,tmax at 8 p.m. as compared to 4 p.m.,[1]; [2],delayed
same,AUCinf between the 2 administration times,"[1]; oral suspension 45 mg and 60 mg, 4 p.m. vs 8 p.m.",comparable
same,t1/2,"[1]; oral suspension 60 mg 8 PM (4 h after dinner), N = 15, Mean",11.1 h
same,first post-dose timepoint with appearance of concentrations,[1]; suspension at 4 p.m. or 8 p.m.,0.25 h
same,last evaluated timepoint at which concentrations remained detectable,[1]; suspension at 4 p.m. or 8 p.m.,72 h
same,mean concentrations following administration at 4 p.m. as compared to 8 p.m.,"[1]; within the first 2 to 3 hours, 45 mg and 60 mg",higher
